In US20120189706A1, “Macrocystis Pyrifera Derived Health and Wellness Products and Methods of Using the Same” (Knocean Sciences, Inc., priority 2009, published 2012):
In brackets after ≈: the same amount, converted by molar mass.

What was measured:
[1] = tested on: Influenza A strain A/Victoria/3/75 (H3N2); experiment: Influenza A Cytoprotection assay; format: cell-based; conditions: Influenza A virus, H3N2, 168 h, MDCK cells, 7 days
RSV strain Long = experiment: Respiratory Syncytial Virus (RSV) Cytoprotection assay; format: cell-based; conditions: human respiratory syncytial virus, 168 h, A549 cells, 7 days
Procedure: The Respiratory Syncytial Virus (RSV) Cytoprotection assay uses A549 cells and RSV strain Long. […] Each assay includes ribavirin (RBV) as a positive control. […] The virus used for this assay is RSV strain Long. […] For each assay, a pre-titered aliquot of virus is removed from the freezer (−80° C.) and allowed to thaw slowly to room temperature in a biological safety cabinet. The virus is resuspended and diluted into tissue culture medium such that the amount of virus added to each well is the amount determined to give between 85 to 95% cell killing at 6-7 days post-infection.

Coxsackie A strain A7 = experiment: Coxsackie A virus Cytoprotection assay; format: cell-based; conditions: MRC5, 168 h, MRC-5 cells, 7 days
Procedure: (§1) The Coxsackie A virus Cytoprotection assay uses MRC-5 cells and Coxsackie A strains A7 or A21. […] Each assay includes ribavirin (RBV) as a positive control. […] The viruses used for this assay are Coxsackie A strains A7 or A21. […] For each assay, a pre-titered aliquot of virus is removed from the freezer (−80° C.) and allowed to thaw slowly to room temperature in a biological safety cabinet. The virus is resuspended and diluted into tissue culture medium such that the amount of virus added to each well is the amount determined to give between 85 to 95% cell killing at 7 days post-infection.

Vero E6 cells = experiment: Compound cytotoxicity in Dengue Virus Cytoprotection assay (MTS); conditions: 7 days
HIV-1 strain IIIB = experiment: HIV-1 Cytoprotection assay; format: cell-based
Rhinovirus strain 1B = experiment: Rhinovirus Cytoprotection assay in MRC-5 cells; format: cell-based
Procedure: as §1, with “Rhinovirus” for “Coxsackie A virus”, “Rhinovirus” for “Coxsackie A”, “1B, 14,” for “A7”, “26.” for “A21.”, “enviroxime (ENV)” for “ribavirin (RBV)”, “6-7” for “7”

MRC-5 cells = experiment: Compound cytotoxicity in Rhinovirus Cytoprotection assay (MTS); format: cell-based, Human; conditions: 7 days
Text: The Rhinovirus Cytoprotection assay uses MRC-5 cells and Rhinovirus strains 1B, 14, or 26. […] Each assay includes enviroxime (ENV) as a positive control.

HSV-1 strain HF = experiment: HSV Cytoprotection assay; format: cell-based
Procedure: The HSV Cytoprotection assay uses Vero cells and HSV-1 strain HF or HSV-2 strain MS. […] Each assay includes acyclovir (ACV) as a positive control. […] The standard viruses used for this assay are HSV-1 strain HF and HSV-2 strain MS (other viruses available upon request). […] For each assay, a pre-titered aliquot of virus is removed from the freezer (−80° C.) and allowed to thaw slowly to room temperature in a biological safety cabinet. The virus is resuspended and diluted into tissue culture medium such that the amount of virus added to each well is the amount determined to give between 85 to 95% cell killing at 5 days post-infection.

[2] = Compound cytotoxicity in HSV Cytoprotection assay (MTS); format: cell-based; conditions: African green monkey (Cercopithecus aethiops), Vero cells (uninfected, cells plus compound only), read-out: TC50

`NC(=O)c1ncn([C@@H]2O[C@H](CO)[C@@H](O)[C@H]2O)n1` [Ribavirin, ribavirin] showed an IC50 [1] of 4.45 µg/mL (≈ 18.2 µM), an IC50 (RSV strain Long) of 12.2 µg/mL (≈ 50 µM) and an IC50 (Coxsackie A strain A7) of 7.04 µg/mL (≈ 28.8 µM). The TC50 (Vero E6 cells) was >200 µg/mL.

For `Cc1cn([C@H]2C[C@H](N=[N+]=[N-])[C@@H](CO)O2)c(=O)[nH]c1=O` [AZT], the IC50 (HIV-1 strain IIIB; HIV-1 Strain IIIB, CEM-SS cells, 6 days) was 0.172 µM, the “Antiviral Index” value (HIV-1 strain IIIB; TC50/IC50, HIV-1) was >5.83 and the CC50 (CEM-SS cells) was > 1 µM.

With `CC(C)S(=O)(=O)n1c(N)nc2ccc(/C(=N/O)c3ccccc3)cc21` [Enviroxime, enviroxime] the IC50 (Rhinovirus strain 1B; Enterovirus, MRC5, 168 h, Rhinovirus Strain 1B, MRC-5 cells, 7 days) was 0.485 µg/mL (≈ 1.35 µM), the “Antiviral Index” value (Rhinovirus strain 1B; TC50/IC50, Rhinovirus) was >20.6 and the TC50 (MRC-5 cells) was >10 µg/mL.

For `Nc1nc2c(ncn2COCCO)c(=O)[nH]1` [Acyclovir, acyclovir], the IC50 (HSV-1 strain HF; Human alphaherpesvirus 1, 120 h, HSV-1 Strain HF, Vero cells, 5 days) was 6.92 µM, the “Antiviral Index” value (HSV-1 strain HF; TC50/IC50, HSV-1) was >14.5 and the CC50 at 5 days [2] was > 100 µM.
